Assay results as given in patent publication US9073855B2, “BCL-2 selective apoptosis-inducing agents for the treatment of cancer and immune diseases” (AbbVie Inc., priority 2008, dated 2015).

Tests used:
GST-Bcl-XL = GST-Bcl-XL (Homo sapiens, UniProt Q07817); experiment: TR-FRET binding assay, GST-Bcl-XL with F-Bak peptide probe; settings: TR-FRET Binding Affinity
Procedure: (§1) Tb-anti-GST antibody was purchased from Invitrogen (Catalog No. PV4216).
(§2) Representative compounds were serially diluted in dimethyl sulfoxide (DMSO) starting at 50 μM (2× starting concentration; 10% DMSO) and 10 μL were transferred into a 384-well plate.
(§3) The samples were then mixed on a shaker for 1 minute and incubated for an additional 3 hours at room temperature. For each assay, the probe/antibody and protein/probe/antibody were included on each assay plate as negative and positive controls, respectively. Fluorescence was measured on the ENVISION plate reader (Perkin Elmer) using a 340/35 nm excitation filter and 520/525 (F-Bak peptide) and 495/510 nm (Tb-labeled […] antibody) emission filters.
(§4) The inhibition constant (Ki) is the dissociation constant of an enzyme-inhibitor complex or a protein/small molecule complex, wherein the small molecule is inhibiting binding of one protein to another protein or peptide. […] Inhibition constants were determined using Wang's equation (Wang Z-X., An Exact Mathematical Expression For Describing Competitive Binding Of Two Different Ligands To A Protein Molecule. FEBS Lett. 1995, 360:111-4).

GST-Bcl-2 = GST-Bcl-2 (Homo sapiens, UniProt P10415); experiment: TR-FRET binding assay, GST-Bcl-2 with F-Bak peptide probe; settings: for Ki: TR-FRET Binding Affinity
Procedure: as §1, §2, §3, §4

[1] = GST-Bcl-XL, F-Bak peptide probe
[2] = TR-FRET, Bcl-XL Ki divided by Bcl-2 Ki

GST-Bcl-2, sequence (P10415 whole entry): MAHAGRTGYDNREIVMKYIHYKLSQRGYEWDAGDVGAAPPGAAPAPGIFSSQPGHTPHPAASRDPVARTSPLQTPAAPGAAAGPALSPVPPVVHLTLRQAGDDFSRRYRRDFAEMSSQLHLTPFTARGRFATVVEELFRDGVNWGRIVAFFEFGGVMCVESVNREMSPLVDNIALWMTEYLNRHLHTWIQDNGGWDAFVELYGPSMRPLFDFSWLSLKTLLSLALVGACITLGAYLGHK
GST-Bcl-XL, sequence (Q07817 whole entry): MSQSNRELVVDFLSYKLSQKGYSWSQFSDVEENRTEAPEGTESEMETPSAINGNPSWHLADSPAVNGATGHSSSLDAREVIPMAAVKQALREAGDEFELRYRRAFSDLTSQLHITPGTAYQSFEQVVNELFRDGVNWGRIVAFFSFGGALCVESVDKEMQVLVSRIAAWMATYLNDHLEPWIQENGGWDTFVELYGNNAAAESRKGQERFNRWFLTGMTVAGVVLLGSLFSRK

| SMILES | Ki (GST-Bcl-XL; [1]) [nM] | Ki (GST-Bcl-2; GST-Bcl-2, F-Bak peptide probe) [nM] | Ki (GST-Bcl-XL) [nM] | Ki (GST-Bcl-2) [nM] | Binding selectivity ratio (Bcl-XL Ki/Bcl-2 Ki) (GST-Bcl-2; [2]) | Binding selectivity ratio (Bcl-XL Ki/Bcl-2 Ki) (GST-Bcl-2; ratio of TR-FRET Ki values, Bcl-XL over Bcl-2) |
| --- | --- | --- | --- | --- | --- | --- |
| CN(C)CCOc1cccc(-c2ccc(Cl)cc2)c1CN1CCN(c2ccc(C(=O)NS(=O)(=O)c3ccc(NCC4CCOCC4)c(S(=O)(=O)C(F)(F)F)c3)c(Oc3ccccc3)c2)CC1 [Example 124, 4-[4-({4′-chloro-3-[2-(dimethylamino)ethoxy]-1,1′-biphenyl-2-yl}methyl)piperazin-1-yl]-2-phenoxy-N-({4-[(tetrahydro-2H-pyran-4-ylmethyl)amino]-3-[(trifluoromethyl)sulfonyl]phenyl}sulfonyl)benzamide] | 73.7 | 0.335 | – | – | – | – |
| CN1CCC(CNc2ccc(S(=O)(=O)NC(=O)c3ccc(N4CCN(CC5=C(c6ccc(Cl)cc6)CC(C)(C)CC5)CC4)cc3Oc3cccc4[nH]cnc34)cc2[N+](=O)[O-])CC1 [Example 454, 2-(1H-benzimidazol-4-yloxy)-4-(4-{[2-(4-chlorophenyl)-4,4-dimethylcyclohex-1-en-1-yl]methyl}piperazin-1-yl)-N-[(4-{[(1-methylpiperidin-4-yl)methyl]amino}-3-nitrophenyl)sulfonyl]benzamide] | – | – | 18.9 | 0.026 | – | – |
| CC1(C)CCC(CN2CCN(c3ccc(C(=O)NS(=O)(=O)c4ccc(OCC5(F)CCN(C6COC6)CC5)c(C#N)c4)c(Oc4cccc5[nH]ncc45)c3)CC2)=C(c2ccc(Cl)cc2)C1 [Example 534, 4-(4-{[2-(4-chlorophenyl)-4,4-dimethylcyclohex-1-en-1-yl]methyl}piperazin-1-yl)-N-[(3-cyano-4-{[4-fluoro-1-(oxetan-3-yl)piperidin-4-yl]methoxy}phenyl)sulfonyl]-2-(1H-indazol-4-yloxy)benzamide] | – | – | 46 | < 0.01 | >4603.9 | – |
| CC1(C)CCC(c2ccc(Cl)cc2)=C(CN2CCN(c3ccc(C(=O)NS(=O)(=O)c4ccc(NCCCN5CCOCC5)c([N+](=O)[O-])c4)c(Oc4ccc5[nH]ccc5c4)c3)CC2)C1 [Example 50, 4-(4-{[2-(4-chlorophenyl)-5,5-dimethylcyclohex-1-en-1-yl]methyl}piperazin-1-yl)-2-(1H-indol-5-yloxy)-N-({4-[(3-morpholin-4-ylpropyl)amino]-3-nitrophenyl}sulfonyl)benzamide] | 90.1 | 0.471 | – | – | – | – |
| COCCOCCN1CCO[C@H](CNc2ccc(S(=O)(=O)NC(=O)c3ccc(N4CCN(CC5=C(c6ccc(Cl)cc6)CC(C)(C)CC5)CC4)cc3Oc3cccc4[nH]cnc34)cc2[N+](=O)[O-])C1 [Example 455, 2-(1H-benzimidazol-4-yloxy)-4-(4-{[2-(4-chlorophenyl)-4,4-dimethylcyclohex-1-en-1-yl]methyl}piperazin-1-yl)-N-({4-[({(2R)-4-[2-(2-methoxyethoxy)ethyl]morpholin-2-yl}methyl)amino]-3-nitrophenyl}sulfonyl)benzamide] | – | – | 0.619 | 0.004 | 139.4 | – |
| CO[C@H]1CC[C@H](CNc2ccc(S(=O)(=O)NC(=O)c3ccc(N4CCN(CC5=C(c6ccc(Cl)cc6)CC(C)(C)CC5)CC4)cc3Oc3cccc4[nH]cnc34)cc2[N+](=O)[O-])CC1 [Example 440, Trans-2-(1H-benzimidazol-4-yloxy)-4-(4-{[2-(4-chlorophenyl)-4,4-dimethylcyclohex-1-en-1-yl]methyl}piperazin-1-yl)-N-[(4-{[(4-methoxycyclohexyl)methyl]amino}-3-nitrophenyl)sulfonyl]benzamide] | – | – | 45.5 | < 0.01 | – | – |
| CC1(C)CCC(CN2CCN(c3ccc(C(=O)NS(=O)(=O)c4cnc(OC[C@@H]5CCN(CC(F)F)C5)c(Cl)c4)c(Oc4cccc5[nH]ncc45)c3)CC2)=C(c2ccc(Cl)cc2)C1 [Example 445, N-[(5-chloro-6-{[(3R)-1-(2,2-difluoroethyl)pyrrolidin-3-yl]methoxy}pyridin-3-yl)sulfonyl]-4-(4-{[2-(4-chlorophenyl)-4,4-dimethylcyclohex-1-en-1-yl]methyl}piperazin-1-yl)-2-(1H-indazol-4-yloxy)benzamide] | – | – | 13.6 | 0.028 | 484.2 | – |
| CC1(C)CCC(CN2CCN(c3ccc(C(=O)NS(=O)(=O)c4cnc(OCC5CCOC5)c(Cl)c4)c(Oc4cccc5[nH]ncc45)c3)CC2)=C(c2ccc(Cl)cc2)C1 (centres unmarked) [Example 420, 4-(4-{[2-(4-chlorophenyl)-4,4-dimethylcyclohex-1-en-1-yl]methyl}piperazin-1-yl)-N-{[5-chloro-6-(tetrahydrofuran-3-ylmethoxy)pyridin-3-yl]sulfonyl}-2-(1H-indazol-4-yloxy)benzamide] | 72.1 | 0.063 | – | – | – | 1153.3 |
| CC1(C)CCC(CN2CCN(c3ccc(C(=O)NS(=O)(=O)c4cnc(OCC5(O)CCC(F)(F)CC5)c(Cl)c4)c(Oc4cccc5[nH]ncc45)c3)CC2)=C(c2ccc(Cl)cc2)C1 [Example 490, N-({5-chloro-6-[(4,4-difluoro-1-hydroxycyclohexyl)methoxy]pyridin-3-yl}sulfonyl)-4-(4-{[2-(4-chlorophenyl)-4,4-dimethylcyclohex-1-en-1-yl]methyl}piperazin-1-yl)-2-(1H-indazol-4-yloxy)benzamide] | – | – | 106 | 1.14 | 92.7 | – |
| CC1(C)CCC(CN2CCN(c3ccc(C(=O)NS(=O)(=O)c4cnc(OCC5(F)CCOCC5)c(F)c4)c(Oc4cccc5[nH]ncc45)c3)CC2)=C(c2ccc(Cl)cc2)C1 [Example 416, 4-(4-{[2-(4-chlorophenyl)-4,4-dimethylcyclohex-1-en-1-yl]methyl}piperazin-1-yl)-N-({5-fluoro-6-[(4-fluorotetrahydro-2H-pyran-4-yl)methoxy]pyridin-3-yl}sulfonyl)-2-(1H-indazol-4-yloxy)benzamide] | 59.1 | 0.023 | – | – | – | – |
| O=C(NS(=O)(=O)c1ccc(NCC2CCOCC2)c(S(=O)(=O)C(F)(F)F)c1)c1ccc(N2CCN(Cc3cc(OCCCN4CCCCC4)ccc3-c3ccc(Cl)cc3)CC2)cc1Oc1ccccc1 [Example 118, 4-(4-{[4′-chloro-4-(3-piperidin-1-ylpropoxy)-1,1′-biphenyl-2-yl]methyl}piperazin-1-yl)-2-phenoxy-N-({4-[(tetrahydro-2H-pyran-4-ylmethyl)amino]-3-[(trifluoromethyl)sulfonyl]phenyl}sulfonyl)benzamide] | > 660 | 0.769 | – | – | – | – |
| O=C(NS(=O)(=O)c1ccc(-n2ncc([N+](=O)[O-])n2)cc1)c1ccc(N2CCN(Cc3ccccc3-c3ccc(Cl)cc3)CC2)cc1Oc1ccccc1 [Example 31, 4-{4-[(4′-chloro-1,1′-biphenyl-2-yl)methyl]piperazin-1-yl}-N-{[4-(4-nitro-2H-1,2,3-triazol-2-yl)phenyl]sulfonyl}-2-phenoxybenzamide] | > 660 | 36.6 | – | – | – | – |
| O=C(NS(=O)(=O)c1cnc(OCC2(F)CCOCC2)c(Cl)c1)c1ccc(N2CCN(CC3=C(c4ccc(Cl)cc4)CCC(F)(F)C3)CC2)cc1Oc1cccc2[nH]ncc12 [Example 521, N-({5-chloro-6-[(4-fluorotetrahydro-2H-pyran-4-yl)methoxy]pyridin-3-yl}sulfonyl)-4-(4-{[2-(4-chlorophenyl)-5,5-difluorocyclohex-1-en-1-yl]methyl}piperazin-1-yl)-2-(1H-indazol-4-yloxy)benzamide] | – | – | 4.67 | < 0.01 | >466.9 | – |
| CC1(C)CCC(CN2CCN(c3ccc(C(=O)NS(=O)(=O)c4ccc(NC[C@H]5CC[C@@](C)(O)CC5)c([N+](=O)[O-])c4)c(Oc4cccc5[nH]ncc45)c3)CC2)=C(c2ccc(Cl)cc2)C1 [Example 526, 4-(4-{[2-(4-chlorophenyl)-4,4-dimethylcyclohex-1-en-1-yl]methyl}piperazin-1-yl)-N-[(4-{[(cis-4-hydroxy-4-methylcyclohexyl)methyl]amino}-3-nitrophenyl)sulfonyl]-2-(1H-indazol-4-yloxy)benzamide] | – | – | 4.68 | < 0.01 | >467.9 | – |
| CC1(C)CCC(CN2CCN(c3ccc(C(=O)NS(=O)(=O)c4ccc(NCC5(F)CCOCC5)c([N+](=O)[O-])c4)c(Oc4cccc5[nH]nnc45)c3)CC2)=C(c2ccc(Cl)cc2)C1 [Example 514, 2-(1H-benzotriazol-4-yloxy)-4-(4-{[2-(4-chlorophenyl)-4,4-dimethylcyclohex-1-en-1-yl]methyl}piperazin-1-yl)-N-[(4-{[(4-fluorotetrahydro-2H-pyran-4-yl)methyl]amino}-3-nitrophenyl)sulfonyl]benzamide] | – | – | 10.4 | < 0.01 | >1041.3 | – |
| CC1(C)CCC(CN2CCN(c3ccc(C(=O)NS(=O)(=O)c4ccc(NCC5CCC(F)(F)CC5)c([N+](=O)[O-])c4)c(Oc4cccc5[nH]cnc45)c3)CC2)=C(c2ccc(Cl)cc2)C1 [Example 456, 2-(1H-benzimidazol-4-yloxy)-4-(4-{[2-(4-chlorophenyl)-4,4-dimethylcyclohex-1-en-1-yl]methyl}piperazin-1-yl)-N-[(4-{[(4,4-difluorocyclohexyl)methyl]amino}-3-nitrophenyl)sulfonyl]benzamide] | – | – | 0.54 | < 0.01 | 54.0 | – |
